Values joined by “and” are separate entries in the source; they are usually repeats but may differ in a detail not shown here. Identical values can stand only once.
Assays:
HER1 (ErbB1) = HER1 (ErbB1) (Homo sapiens (Human), UniProt P00533); assay: In vitro enzyme activity, HER1 (ErbB1), [γ-33P]ATP filter assay; format: biochemical
Description: (§1) The object of this test is to detect the in vitro inhibitory activity of the compound against HER1 (ErbB1), HER2 (ErbB2) and HER4 (ErbB4). The enzymes used in this test were human ErbB1, ErbB2 and ErbB4.
(§2) Experimental Steps and Methods (96-Well Plate):
(§3) 5-fold diluted tested compound buffer (5 μL), peptide substrate poly(Glu, Tyr) (4:1) (2.5 μL), ErbB (4-20 ng, 2.5 μL), MnCl2 (50 mM, 1.25 μL), dH2O (3.75 μL) and [γ-^33P]ATP (10 μL) were added, and incubated at 30° C. for 10 min. 3% phosphoric acid was added to terminate the reaction, and 10 μL of the specimen was transferred to Filtermate A. The filter was washed with 75 mM phosphoric acid for three times and methanol once, and transferred to a sealed plastic bag, and a scintillation fluid mixture (4 mL) was added, The intensity of the emitted photons was detected on the scintillation luminescence counter. The photon intensity of the enzyme sample was compared with the photon intensity of the internal control sample, and the level of photon intensity reflected the strength of the tyrosine kinase activity.

HER2 (ErbB2) = HER2 (ErbB2) (Homo sapiens (Human), UniProt P04626); assay: In vitro enzyme activity, HER2 (ErbB2), [γ-33P]ATP filter assay; format: biochemical
HER2 (ErbB2), sequence (P04626 23-1255): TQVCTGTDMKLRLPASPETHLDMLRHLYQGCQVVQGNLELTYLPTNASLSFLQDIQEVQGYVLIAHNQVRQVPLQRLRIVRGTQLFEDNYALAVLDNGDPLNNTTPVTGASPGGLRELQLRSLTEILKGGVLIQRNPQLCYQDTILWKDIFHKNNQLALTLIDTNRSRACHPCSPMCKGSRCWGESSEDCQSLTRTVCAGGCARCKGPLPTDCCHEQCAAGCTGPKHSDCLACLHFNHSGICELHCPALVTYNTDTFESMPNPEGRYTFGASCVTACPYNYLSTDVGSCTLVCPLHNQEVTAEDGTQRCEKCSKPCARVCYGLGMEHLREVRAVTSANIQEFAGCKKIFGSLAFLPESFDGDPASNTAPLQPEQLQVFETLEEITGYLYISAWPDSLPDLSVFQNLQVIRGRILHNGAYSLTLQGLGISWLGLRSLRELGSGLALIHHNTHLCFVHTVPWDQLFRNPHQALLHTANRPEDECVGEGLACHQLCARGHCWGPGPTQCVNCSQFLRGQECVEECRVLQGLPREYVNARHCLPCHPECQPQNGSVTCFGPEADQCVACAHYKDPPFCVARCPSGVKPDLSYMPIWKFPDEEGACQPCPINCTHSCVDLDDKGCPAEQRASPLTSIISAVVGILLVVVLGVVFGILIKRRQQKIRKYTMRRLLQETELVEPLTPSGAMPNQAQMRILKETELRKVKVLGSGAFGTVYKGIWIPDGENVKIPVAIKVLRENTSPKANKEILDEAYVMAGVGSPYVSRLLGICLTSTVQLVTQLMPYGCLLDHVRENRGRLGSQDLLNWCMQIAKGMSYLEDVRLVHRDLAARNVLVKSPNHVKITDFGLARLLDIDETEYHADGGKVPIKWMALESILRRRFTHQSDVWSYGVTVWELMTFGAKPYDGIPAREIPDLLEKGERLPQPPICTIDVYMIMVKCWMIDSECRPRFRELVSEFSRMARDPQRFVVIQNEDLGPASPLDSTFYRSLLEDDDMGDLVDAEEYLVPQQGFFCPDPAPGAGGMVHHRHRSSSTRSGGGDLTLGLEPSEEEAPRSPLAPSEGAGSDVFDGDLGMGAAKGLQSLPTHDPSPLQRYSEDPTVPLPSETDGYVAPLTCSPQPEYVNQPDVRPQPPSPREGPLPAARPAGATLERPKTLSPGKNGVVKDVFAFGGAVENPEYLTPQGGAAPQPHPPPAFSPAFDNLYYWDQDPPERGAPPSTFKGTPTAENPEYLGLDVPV
Description: as §1, with “ErbB4. Eurofins Pharma Discovery Service provided the activity detection method, and the results of the inhibitory activity of the tested compound against HER1, HER2 and HER4 were shown in Table 1.” for “ErbB4.”
as §2, §3

HER4 (ErbB4) = HER4 (ErbB4) (Homo sapiens (Human), UniProt Q15303); assay: In vitro enzyme activity, HER4 (ErbB4), [γ-33P]ATP filter assay; format: biochemical
HER4 (ErbB4), sequence (Q15303 26-1308): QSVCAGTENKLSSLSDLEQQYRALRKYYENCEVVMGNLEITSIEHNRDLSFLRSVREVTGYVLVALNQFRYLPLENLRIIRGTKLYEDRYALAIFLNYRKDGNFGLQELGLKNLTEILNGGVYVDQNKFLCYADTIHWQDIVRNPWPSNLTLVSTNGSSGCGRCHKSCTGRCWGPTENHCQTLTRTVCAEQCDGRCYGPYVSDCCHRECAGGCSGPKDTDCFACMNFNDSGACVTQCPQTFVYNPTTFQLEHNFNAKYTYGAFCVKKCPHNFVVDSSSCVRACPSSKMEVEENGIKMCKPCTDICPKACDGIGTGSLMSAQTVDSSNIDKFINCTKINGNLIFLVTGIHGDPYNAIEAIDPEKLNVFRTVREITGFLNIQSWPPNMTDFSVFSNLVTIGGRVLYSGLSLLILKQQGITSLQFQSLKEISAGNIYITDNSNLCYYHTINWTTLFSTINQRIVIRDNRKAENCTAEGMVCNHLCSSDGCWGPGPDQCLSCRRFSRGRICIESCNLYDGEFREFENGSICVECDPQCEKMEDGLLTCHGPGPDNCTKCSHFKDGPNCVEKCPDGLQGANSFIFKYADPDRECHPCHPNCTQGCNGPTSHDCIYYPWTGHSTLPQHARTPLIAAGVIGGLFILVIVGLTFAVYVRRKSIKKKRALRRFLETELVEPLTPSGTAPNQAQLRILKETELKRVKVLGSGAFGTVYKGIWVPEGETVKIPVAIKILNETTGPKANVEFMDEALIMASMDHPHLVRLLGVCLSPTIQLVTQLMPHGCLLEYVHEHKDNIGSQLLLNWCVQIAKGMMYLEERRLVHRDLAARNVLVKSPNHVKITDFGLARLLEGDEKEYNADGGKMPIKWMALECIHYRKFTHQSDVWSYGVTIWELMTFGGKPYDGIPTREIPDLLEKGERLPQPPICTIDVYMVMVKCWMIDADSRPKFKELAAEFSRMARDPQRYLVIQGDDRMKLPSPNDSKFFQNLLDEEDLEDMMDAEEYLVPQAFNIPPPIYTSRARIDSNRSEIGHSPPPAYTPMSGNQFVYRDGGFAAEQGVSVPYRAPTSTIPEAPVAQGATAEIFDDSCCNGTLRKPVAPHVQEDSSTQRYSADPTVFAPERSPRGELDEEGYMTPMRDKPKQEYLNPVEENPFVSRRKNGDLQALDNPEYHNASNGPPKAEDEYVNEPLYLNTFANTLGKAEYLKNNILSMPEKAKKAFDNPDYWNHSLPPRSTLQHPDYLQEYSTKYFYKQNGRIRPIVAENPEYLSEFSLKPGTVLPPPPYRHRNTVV
Description: as §1, with “ErbB4. Eurofins Pharma Discovery Service provided the activity detection method, and the results of the inhibitory activity of the tested compound against HER1, HER2 and HER4 were shown in Table 1.” for “ErbB4.”
as §2, §3

NCI-N87 cell = assay: Cell proliferation inhibitory activity, Cell-Titer-Glo, NCI-N87; format: cell-based, human; settings: 3 days incubation
Excerpt: (§4) Experiment object: to detect the inhibitory activity of the tested compound on cell proliferation.
(§5) Experimental principle: the luciferase in the Cell-Titer-Glo reagent uses luciferin, oxygen and ATP as reaction substrates to produce oxyluciferin and release energy in the form of light. Since the luciferase reaction requires ATP, the total amount of light produced by the reaction is proportional to the total amount of ATP that reflects cell viability.
(§6) Experimental Materials: • cell lines: NCI-N87 cell line (ATCC-CRL-5822); BT-474 cell line (ATCC-HTB-20) • Cell culture medium: RPMI 1640 medium (Invitrogen #22400-105; 10% serum Invitrogen #10090148; L-glutamine 1×, Gibco #25030-081; double antibody Hyclone #SV30010) • CellTiter-Glo® luminescence cell viability detection kit (Promega #G7573) • 384-well cell culture plate (Greiner #781090) • Compound plate (LABCYTE #LP-0200) • CO2 incubator (Thermo #371) • Vi-cell cell counter (Beckman Coulter) • Pipette (Eppendorf) • Pipette (Greiner) • Pipetting gun (Eppendorf) • Multifunctional microplate reader (Envision Reader) • ECHO Liquid-handling workstation (Labcyte-ECHO555)
(§7) The cells were inoculated in a 384-well plate with a density of 1000 cells per well and 25 μL per well. The edge wells were not inoculated with cells, and was supplemented with 25 μL of phosphate buffer.
(§8) The compound was added to the plate with 9 μL per well.
(§9) (2) The compound was diluted with ECHO liquid-handling workstation, and each well of the cell plate was added with 125 nL of compound. Each well of the cell wells of columns 2 and 23 was added with 125 nL of DMSO, and each well of the Media wells of columns 1 and 24 was added with 125 nL of DMSO.
(§10) (3) Each well of the cell plate was supplemented with 25 μL of culture medium, and the final volume in each well of the cell plate was 50 μL. The concentration of the compound was 10 μM, which was subjected to 3 fold dilution to obtain 10 concentrations. Each concentration was duplicated in left and right wells, and the final DMSO concentration was 0.25%.
(§11) 2.3 After adding the compound, it was centrifuged at 1000 rpm for 1 min. The cell plate was placed in a 37° C., 5% CO2 incubator for 3 days.
(§12) The cell plate was taken from the incubator and equilibrated at room temperature for 30 min. 25 μL of Cell-Titer-Glo reagent was added to each well, shaken for 1 min to make it thoroughly mixed, and centrifuged at 1000 rpm for 1 min. After 10 min, the plate was read on PerkinElmer Envision, and the […] reading time was set to 0.2 seconds.

BT-474 cell = assay: Cell proliferation inhibitory activity, Cell-Titer-Glo, BT-474; format: cell-based; settings: Homo sapiens, BT-474, 72 h; 3 days incubation
Excerpt: as §4, §5, §6, §7, §8, §9, §10, §11, §12

[1] = test system: human breast cancer BT-474 cell subcutaneous xenograft tumor; assay: In vivo efficacy, BT-474 subcutaneous xenograft tumor model; design: species or system BALB/c nude mice; settings: BT-474 xenograft, 100 mg/kg
Description: Experiment object: to study the in vivo efficacy of the tested compound in human breast cancer BT-474 cell BALB/c nude mouse subcutaneous xenograft tumor model.
Experimental animals: female BALB/c nude mice, 6 to 8 weeks old, weight: 18 to 22 grams; Supplier Beijing Weitonglihua Laboratory Animal Technology Co., Ltd.
Human breast cancer BT474 cells were cultured in a monolayer in vitro. The culture conditions were: ATCC Hybri-Care Medium with 1.5 g/L sodium bicarbonate, 10% fetal bovine serum, 100 U/mL penicillin and 100 μg/mL streptomycin, and 37° C., 5% CO2 incubator. Conventional digestion treatment with pancreatin-EDTA for passage was carried out twice a week. When the cell saturation was 80% to 90%, and the number reached the requirement, the cells were collected, counted and inoculated.
0.2 mL (1×10^7 cells) of BT474 cells (with matrigel in a volume ratio of 1:1) were subcutaneously inoculated on the right back of each mouse. The grouping and administration were started when the average tumor volume reached about 168 mm^3. (Estrogen tablets were inoculated three days before cell inoculation).
7.3 the Preparation of the Tested Samples, Tumor Measurement, Experimental Index and Statistical Analysis were the Same as in Experimental Example 6.

HER1 (ErbB1), sequence (P00533 25-1210): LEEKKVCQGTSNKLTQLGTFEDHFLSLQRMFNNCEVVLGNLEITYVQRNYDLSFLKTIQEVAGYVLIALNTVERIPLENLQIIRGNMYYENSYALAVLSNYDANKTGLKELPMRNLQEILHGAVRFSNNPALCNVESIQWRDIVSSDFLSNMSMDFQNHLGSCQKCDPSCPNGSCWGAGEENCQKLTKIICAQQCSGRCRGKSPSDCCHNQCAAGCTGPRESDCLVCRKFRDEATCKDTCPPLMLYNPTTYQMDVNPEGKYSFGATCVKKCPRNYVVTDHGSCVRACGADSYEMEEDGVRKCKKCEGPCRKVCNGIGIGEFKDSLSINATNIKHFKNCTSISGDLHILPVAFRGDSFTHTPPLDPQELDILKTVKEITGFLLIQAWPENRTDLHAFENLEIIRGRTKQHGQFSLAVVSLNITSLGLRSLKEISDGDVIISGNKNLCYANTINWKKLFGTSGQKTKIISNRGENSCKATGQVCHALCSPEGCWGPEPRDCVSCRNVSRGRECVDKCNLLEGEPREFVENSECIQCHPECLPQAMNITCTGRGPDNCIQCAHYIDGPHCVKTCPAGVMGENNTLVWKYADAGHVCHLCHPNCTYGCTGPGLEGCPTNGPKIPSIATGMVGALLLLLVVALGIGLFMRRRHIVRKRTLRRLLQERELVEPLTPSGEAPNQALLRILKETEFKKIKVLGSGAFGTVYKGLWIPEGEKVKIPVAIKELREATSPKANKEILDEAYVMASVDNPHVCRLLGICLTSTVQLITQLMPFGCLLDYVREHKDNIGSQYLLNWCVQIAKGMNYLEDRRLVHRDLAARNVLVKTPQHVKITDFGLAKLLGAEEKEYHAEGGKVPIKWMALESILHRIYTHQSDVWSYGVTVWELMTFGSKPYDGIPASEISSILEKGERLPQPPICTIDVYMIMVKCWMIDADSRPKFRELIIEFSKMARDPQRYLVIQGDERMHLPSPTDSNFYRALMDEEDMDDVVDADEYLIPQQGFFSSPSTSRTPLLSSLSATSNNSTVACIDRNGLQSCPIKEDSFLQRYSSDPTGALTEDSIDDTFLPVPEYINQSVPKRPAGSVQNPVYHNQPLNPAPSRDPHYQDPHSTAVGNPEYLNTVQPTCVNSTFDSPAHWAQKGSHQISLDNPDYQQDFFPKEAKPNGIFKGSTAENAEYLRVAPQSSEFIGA

Row | IC50 (HER1 (ErbB1)) [µM] | IC50 (HER2 (ErbB2)) [µM] | IC50 (HER4 (ErbB4)) [µM] | IC50 (BT-474 cell) [µM] | SMILES | IC50 (NCI-N87 cell; Homo sapiens, NCI-N87, 72 h) [µM] | IC50 (NCI-N87 cell) [µM] | RTV ([1]; day 20) | T/C ([1]; day 20) [%] | TGI ([1]; day 20) [%] | Tumor volume ([1]; day 20 (head: Day 21), mean ± SEM)
1 | 0.663 | 0.014 | > 1 | – | NC1CCN(Cc2ccn3ncnc(Nc4ccc(Oc5ccn6ncnc6c5)c(C(F)(F)F)c4)c23)CC1 [Example 30] | – | – | – | – | – | –
2 | 0.509 | 0.004 | > 1 | – | COCCNC1CCN(Cc2ccn3ncnc(Nc4ccc(Oc5ccn6ncnc6c5)c(C)c4)c23)CC1 [Example 18] | 0.065 | – | – | – | – | –
3 | – | 0.01 | > 1 | – | Cc1cc(Nc2ncnn3ccc(CN4C[C@H]5CC[C@@H](C4)[C@H]5N)c23)ccc1Oc1ccn2ncnc2c1 [Example 7] | 0.027 | – | – | – | – | –
4 | > 1 | 0.016 | > 1 | 0.097 | Cc1cc(Nc2ncnn3ccc(CN4CCCNCC4)c23)ccc1Oc1ccn2ncnc2c1 [Example 5] | 0.059 | – | – | – | – | –
5 | – | – | – | – | CCNC1CCN(Cc2ccn3ncnc(Nc4ccc(Oc5ccn6ncnc6c5)c(C)c4)c23)CC1 [Example 19] | 0.023 | – | – | – | – | –
6 | > 1 | 0.024 | > 1 | – | Cc1cc(Nc2ncnn3ccc(CN4CCNCC4)c23)ccc1Oc1ccn2ncnc2c1 [Example 1] | – | – | – | – | – | –
7 | – | – | – | – | Cc1cc(Nc2ncnn3ccc(CN4CC(O)C4)c23)ccc1Oc1ccn2ncnc2c1 [Example 12] | 0.052 | – | – | – | – | –
8 | 0.167 | 0.007 | 0.23 | 0.088 | COCC1(N)CCN(Cc2ccn3ncnc(Nc4ccc(Oc5ccn6ncnc6c5)c(C)c4)c23)CC1 [Example 20] | 0.009 | – | – | – | – | –
9 | 0.325 | 0.011 | 0.201 | – | Cc1cc(Nc2ncnn3ccc(CN4CCC(C)(N)CC4)c23)ccc1Oc1ccn2ncnc2c1 [Example 9] | 0.008 | – | – | – | – | –
10 | 0.667 | 0.003 | > 1 | – | Cc1c(Oc2ccn3ncnc3c2)ccc(Nc2ncnn3ccc(CN4CCC(N)CC4)c23)c1F [Example 31] | 0.031 | – | – | – | – | –
11 | 0.861 | 0.007 | 0.535 | – | Cc1cc(Nc2ncnn3ccc(CN4CCC(O)CC4)c23)ccc1Oc1ccn2ncnc2c1 [Example 16] | 0.038 | – | – | – | – | –
12 | 0.284 | 0.002 | 0.356 | 0.087 | NC1CCN(Cc2ccn3ncnc(Nc4ccc(Oc5ccn6ncnc6c5)c(Cl)c4F)c23)CC1 [Example 32] | 0.011 | – | 0.61 ± 0.06 | 7.84 | 106.44 | 101 mm^3 and 101 ± 12 mm^3
13 | – | – | – | – | Cc1cc(Nc2ncnn3ccc(CC4CCC(N)CC4)c23)ccc1Oc1ccn2ncnc2c1 (stereo not shown) [Example 29] | 0.027 | – | – | – | – | –

Row | SMILES | IC50 (HER1 (ErbB1)) [µM] | IC50 (HER2 (ErbB2)) [µM] | IC50 (HER4 (ErbB4)) [µM] | IC50 (BT-474 cell) [µM] | IC50 (NCI-N87 cell; Homo sapiens, NCI-N87, 72 h) [µM] | IC50 (NCI-N87 cell) [µM] | RTV ([1]; day 20) | T/C ([1]; day 20) [%] | TGI ([1]; day 20) [%] | Tumor volume ([1]; day 20 (head: Day 21), mean ± SEM)
14 | Cc1cc(Nc2ncnn3ccc(CN4CC[C@H](N)[C@@H](F)C4)c23)ccc1Oc1ccn2ncnc2c1 [Example 23] | 0.061 | 0.002 | 0.041 | – | – | 0.003 | – | – | – | –
15 | Cc1cc(Nc2ncnn3ccc(CN4CC[C@H](N)[C@@H](F)C4)c23)ccc1Oc1ccn2ncnc2c1 [Example 21] | 0.909 | 0.004 | > 1 | – | – | 0.019 | – | – | – | –
16 | Cc1cc(Nc2ncnn3ccc(CN4[C@@H]5CC[C@H]4C[C@H](N)C5)c23)ccc1Oc1ccn2ncnc2c1 [Example 8] | 0.385 | 0.01 | 0.184 | – | 0.02 | – | – | – | – | –
17 | Cc1cc(Nc2ncnn3ccc(CN4[C@@H]5CC[C@H]4C[C@H](O)C5)c23)ccc1Oc1ccn2ncnc2c1 [Example 6] | 0.743 | 0.018 | 0.15 | – | 0.004 | – | – | – | – | –
18 | CO[C@H]1CN(Cc2ccn3ncnc(Nc4ccc(Oc5ccn6ncnc6c5)c(C)c4)c23)CC[C@@H]1N [Example 25] | 0.207 | 0.002 | 0.369 | – | – | 0.014 | – | – | – | –

From patent publication US12030897B2, “Pyrrolo[2,1-f][1,2,4]triazine derivatives serving as selective HER2 inhibitors and application thereof” (MEDSHINE DISCOVERY INC., priority 2018, dated 2024)
